{"source": "patent US11891628B2", "about": "“Method for biomimetic culture of urothelial cells and uses thereof” (China Medical University, priority 2018, dated 2024)", "key": {"[1]": {"test_system": "BBN-induced bladder tumor", "experiment": "BBN-induced bladder tumor mouse model", "assay_type": "in vivo, mice", "experimental": "FIG. 9. […] Tumor-bearing mice were treated according to the experimental scheme (A). Representative photographs of the gross tumors from mice with different treatments (B). Tumor weights of the different treatment groups (C) (mean±SD, at least 9 mice from 3 independent experiments). Representative H&E stained images of tumors of different treatment groups (D). Histograms of the pathological analysis for the proportions of hyperplastic and neoplastic changes in bladder H&E stained section of mice with different treatments (E). *p<0.05; **p<0.01 by Student's t test.\nFor BBN-induced bladder tumor formation, a 0.05% concentration of BBN (TCI America, Portland, OR) was dissolved in drinking water, and BBN-containing water in a dark bottle was provided to 8-10 week old female C57BL/6 mice ad libitum for 10-20 weeks until hematuria score is over 2+ (Arkray Aution Sticks urine strip) as a sign of bladder tumor formation. […]\nTo test the anti-tumor effects of intravesical xenogeneic cell therapy in combination with chemotherapeutic agents in delaying tumor progression, BBN-induced tumor mouse model, which simulates the human bladder tumorigenesis from hyperplasia, carcinoma in situ (CIS) to invasive carcinoma was used. […] The progression of BBN-induced bladder tumors in the treatment groups and control group was assessed by macroscopic and histopathological examination from harvested bladders. […]"}, "[2]": {"test_system": "MBT-2-luc orthotopic graft bladder tumor", "experiment": "Orthotopic MBT-2-luc graft bladder tumor mouse model", "method": "The tumor bearing mice were enrolled when tumor bioluminescent signal reached 10^5 total plex and treated according to the treatment scheme (A).\nTumors from mice of different treatment groups were harvested, processed and sectioned for tumor cell Ki-67 IHC and TUNEL assay. Tumor sections were evaluated for cell proliferation 45 with Ki-67 IHC staining (A). Ki-67 positive cells on tumor sections were counted and quantified from mice of 3 independent experiments (B). Tumor sections were stained with TUNEL (FITC) and observed under a fluorescent microscope (C). DAPI was used for nuclear staining. TUNEL positive cells on tumor sections were counted and quantified from mice of 3 independent experiments (D). Values are expressed as mean±standard error of the mean (n=3). *p<0.05; **p<0.01; ***p<0.001, by Student's t test. Scale bar, 50 μm.\nTumors from mice given different treatments were analyzed by IHC for lymphocyte and NK cell infiltration. Representative images of anti-CD4 (A), CD8 (B) and NKG2D (C) IHC staining on tumor sections. Quantification of CD4+ T lymphocytes (D), CD8+T lymphocytes (E) and NKG2D+ NK cells (F) in tumors for each treatment group by counting the positive cells in four randomly selected HPFs among 3 mice in each group, and data were expressed as the means±SD. Error bars represent SD. *p<0.05; **p<0.01; ***p<0.001, by Student's t test.\nFemale C3H/HeJ 9-week-old mice were used to establish the intramural orthotopic model. MBT-2 murine urothelial carcinoma cells stably expressing luciferase gene (MBT-2-luc) were intramuscularly injected to mouse bladder walls and capture tumor imaged by Xenogen IVIS 200 once per week. The mice are divided control and experiment groups when tumors are reached around 1×10^5 p/s total flux in bioluminescence imaging. The tumor bearing mice were divided into 4 treatment groups: (i). Vehicle control, (ii). Xenogeneic urothelial cell: intravesical of instillation xenogeneic urothelial cells (1×10^6 cells), once a week, day 3 for 4 weeks, (iii). […] A 24-gauge catheter is introduced into the lumen of the bladder through the urethra. Xenogeneic urothelial cells, 1×10^6 in a 100 μl suspension is then injected into the bladder. To prevent voiding of the xenogeneic urothelial cells, the catheter is held in place for at least 40 minutes with the injection syringe attached. The catheter is removed before the mouse recovered from anesthesia. The responses of mice are analyzed on BLI total flux intensity changes from the baseline."}, "[3]": {"details": "IHC on tumor sections, vs vehicle"}}}
{"substance": "Gemcitabine plus cisplatin [GC]", "values": [{"measurement": "tumor weight", "setting": "[1]; harvested bladders after 4 weeks treatment", "value": "significantly reduced"}, {"measurement": "proportion of mice progressed to invasive carcinoma", "setting": "[1]; histopathological analysis of H&E sections", "value": "significantly lower"}, {"measurement": "NKG2D+ NK cell infiltration in tumors", "setting": "[2]; [3]", "value": "not observed"}, {"measurement": "tumor CD4+ T cell infiltration", "setting": "[2]; [3]", "value": "increased"}, {"measurement": "tumor CD8+ T cell infiltration", "setting": "[2]; [3]", "value": "increased"}, {"measurement": "tumor growth", "setting": "[2]; bioluminescence, vs vehicle-treated groups, 4 weeks treatment", "value": "significantly decreased"}]}
